By Kd is commonly meant the concentration at which binding is half-saturated. High values mean weaker binding, low ones tighter binding.

The target of this experiment is T1, breast cancer resistance protein (BCRP) (Homo sapiens, UniProt Q9UNQ0).
T1 sequence (Q9UNQ0 1-655): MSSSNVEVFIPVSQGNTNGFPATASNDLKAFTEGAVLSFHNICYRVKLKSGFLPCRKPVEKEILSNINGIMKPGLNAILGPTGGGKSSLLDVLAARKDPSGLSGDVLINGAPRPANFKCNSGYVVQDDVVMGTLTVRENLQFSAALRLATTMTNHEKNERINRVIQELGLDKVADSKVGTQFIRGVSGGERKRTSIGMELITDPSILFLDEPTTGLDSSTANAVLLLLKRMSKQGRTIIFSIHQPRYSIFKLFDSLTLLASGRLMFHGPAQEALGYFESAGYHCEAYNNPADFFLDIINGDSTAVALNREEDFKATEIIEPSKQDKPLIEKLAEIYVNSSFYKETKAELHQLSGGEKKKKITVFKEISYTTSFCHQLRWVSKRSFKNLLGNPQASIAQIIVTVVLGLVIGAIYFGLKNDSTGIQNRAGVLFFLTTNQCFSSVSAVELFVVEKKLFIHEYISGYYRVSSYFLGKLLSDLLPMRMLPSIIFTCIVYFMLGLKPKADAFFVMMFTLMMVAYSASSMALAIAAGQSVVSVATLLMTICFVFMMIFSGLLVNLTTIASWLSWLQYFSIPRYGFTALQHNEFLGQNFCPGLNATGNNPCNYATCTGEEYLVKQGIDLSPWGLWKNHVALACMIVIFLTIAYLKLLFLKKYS
The experiment is described as follows: frontal displacement affinity chromatography. It is filed as binding. The note with it: nmac-bcrp column.
Compound `COc1ccc2c3c([nH]c2c1)[C@H](C=C(C)C)N1C(=O)[C@@H]2CCCN2C(=O)[C@@H]1C3` [FTC, Fumitremorgin C] displayed a Kd of 1.63 µM. For `COc1cc([C@@H]2c3cc4c(cc3[C@@H](O[C@@H]3O[C@@H]5CO[C@@H](C)O[C@H]5[C@H](O)[C@H]3O)[C@H]3COC(=O)[C@H]23)OCO4)cc(OC)c1O` [Etoposide] the value was 4.55 µM.

Take `COc1ccc(-c2coc3cc(O)cc(O)c3c2=O)cc1` [Biochanin A]: the Kd stood at 1.05 µM.

For the origin of these results see PMC3499775 (Journal of pharmaceutical and biomedical analysis, 2012).
